Results from ChEMBL document CHEMBL1201862, “PubChem BioAssay data set” (2004).
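How tested: cells in 96-well plates exposed to compound for 48 hours at five concentrations. At the GI50, growth is halved.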 Activity calls are given as the source filed them. Cut-off read from the data, not from the text of the source: active = GI50 up to about 1.1 µM and inactive = higher.

Experiments:
Assay in all cases: NCI anticancer screen, dose series, 48 h
A549 = test system: A549
ACHN = test system: ACHN
COLO 205 = test system: COLO 205
HCC 2998 = test system: HCC 2998
HCT-15 = test system: HCT-15
HOP-62 = test system: HOP-62
HOP-92 = test system: HOP-92
IGROV-1 = test system: IGROV-1
M14 = test system: M14
Malme-3M = test system: Malme-3M
NCI-H460 = test system: NCI-H460
NCI/ADR-RES = test system: NCI/ADR-RES
OVCAR-3 = test system: OVCAR-3
OVCAR-4 = test system: OVCAR-4
RPMI-8226 = test system: RPMI-8226
SF-295 = test system: SF-295
SNB-19 = test system: SNB-19
SR = test system: SR
T47D = test system: T47D
TK-10 = test system: TK-10

Row | SMILES | GI50 (A549) | GI50 (ACHN) | GI50 (COLO 205) | GI50 (HCC 2998) | GI50 (HCT-15) | GI50 (HOP-62) | GI50 (HOP-92) | GI50 (IGROV-1) | GI50 (M14) | GI50 (Malme-3M) | GI50 (NCI-H460) | GI50 (NCI/ADR-RES) | GI50 (OVCAR-3) | GI50 (OVCAR-4) | GI50 (RPMI-8226) | GI50 (SF-295) | GI50 (SNB-19) | GI50 (SR) | GI50 (T47D) | GI50 (TK-10)
1 | Cc1csc2nc(-c3cc([N+](=O)[O-])c(Cl)cc3Cl)c(/C=N/N=C(N)N)n12 | 19 µM (inactive) | 16.6 µM (inactive) | 17.9 µM (inactive) | 7.19 µM (inactive) | 21.2 µM | 16.3 µM (inactive) | 14.4 µM (inactive) | 16.4 µM (inactive) | 17.1 µM (inactive) | 17.8 µM (inactive) | 20.2 µM (inactive) | 15.3 µM (inactive) | 17 µM (inactive) | 16 µM (inactive) | 16.7 µM (inactive) | 17.8 µM (inactive) | 19.8 µM (inactive) | 0.0678 µM (active) | 16.9 µM (inactive) | 16.8 µM (inactive)
2 | COC1=C[C@]2(CCC(=O)O2)[C@@H]2Cc3ccccc3[C@H](O)[C@@H]2C1=O | > 100 µM (inactive) | 49.2 µM (inactive) | > 100 µM (inactive) | > 100 µM (inactive) | 41.1 µM | 69.3 µM (inactive) | 78.3 µM (inactive) | 82.6 µM (inactive) | > 100 µM (inactive) | 24.5 µM (inactive) | 85.9 µM (inactive) | 97.9 µM (inactive) | 28.5 µM (inactive) | 43.2 µM (inactive) | 18.1 µM (inactive) | > 100 µM (inactive) | > 100 µM (inactive) | 19.5 µM (inactive) | 13.1 µM (inactive) | > 100 µM (inactive)
3 | CC(C)(C)c1ccc(-c2nc3ccc([N+](=O)[O-])cc3c(=O)o2)cc1 | 28.9 µM (inactive) | 21.9 µM (inactive) | 24.4 µM (inactive) | 12.9 µM (inactive) | 22.6 µM | 22.2 µM (inactive) | 15.6 µM (inactive) | 44.2 µM (inactive) | 26.5 µM (inactive) | 28.9 µM (inactive) | 36.4 µM (inactive) | 25.4 µM (inactive) | 27.4 µM (inactive) | 17.6 µM (inactive) | 30.9 µM (inactive) | 20.8 µM (inactive) | 21.5 µM (inactive) | 22.7 µM (inactive) | 40.5 µM (inactive) | 38.8 µM (inactive)
4 | C=C(C)C(CC=C(C)C)Cc1c(O)cc(OC)c2c1OC(c1ccc(O)cc1O)C(O)C2=O (stereo not given) | 19.5 µM (inactive) | 20.4 µM (inactive) | 16.3 µM (inactive) | 16.8 µM (inactive) | 17 µM | 17.3 µM (inactive) | 14.6 µM (inactive) | 14.6 µM (inactive) | 22 µM (inactive) | 17.7 µM (inactive) | 15.5 µM (inactive) | 22.9 µM (inactive) | 16.7 µM (inactive) | 16.3 µM (inactive) | > 100 µM (inactive) | 15 µM (inactive) | 15.5 µM (inactive) | > 100 µM (inactive) | 13.8 µM (inactive) | 21.8 µM (inactive)
5 | Cc1cc(C)nc(NS(=O)(=O)c2ccc(Nc3c4ccccc4nc4c(C(=O)NCCCN(CCO)CCO)cccc34)cc2)n1 | 26.4 µM (inactive) | 22.9 µM (inactive) | 14 µM (inactive) | 16.7 µM (inactive) | 49.2 µM | 17.1 µM (inactive) | 5.18 µM (inactive) | 15.5 µM (inactive) | 31.8 µM (inactive) | 15.4 µM (inactive) | 7.48 µM (inactive) | > 100 µM (inactive) | 30.1 µM (inactive) | 16.9 µM (inactive) | 9.38 µM (inactive) | 27.4 µM (inactive) | 9.29 µM (inactive) | 9.75 µM (inactive) | 22.5 µM (inactive) | > 100 µM (inactive)
6 | CC1(C)CC(=O)c2c(nc(SSc3nc4c(c(-c5ccc(Br)cc5)c3C#N)C(=O)CC(C)(C)C4)c(C#N)c2-c2ccc(Br)cc2)C1 | > 10 µM (inactive) | > 10 µM (inactive) | > 10 µM (inactive) | > 10 µM (inactive) | > 10 µM | > 10 µM (inactive) | > 10 µM (inactive) | > 10 µM (inactive) | > 10 µM (inactive) | > 10 µM (inactive) | > 10 µM (inactive) | > 10 µM (inactive) | > 10 µM (inactive) | > 10 µM (inactive) | > 10 µM (inactive) | > 10 µM (inactive) | > 10 µM (inactive) | > 10 µM (inactive) | > 10 µM (inactive) | > 10 µM (inactive)
7 | CNC(=O)N1CN(c2ccccc2)C2(CCN(CCCC3(c4ccc(F)cc4)OCCO3)CC2)C1=O | > 100 µM (inactive) | > 100 µM (inactive) | > 100 µM (inactive) | > 100 µM (inactive) | > 100 µM | > 100 µM (inactive) | > 100 µM (inactive) | > 100 µM (inactive) | > 100 µM (inactive) | > 100 µM (inactive) | > 100 µM (inactive) | > 100 µM (inactive) | > 100 µM (inactive) | > 100 µM (inactive) | > 100 µM (inactive) | > 100 µM (inactive) | > 100 µM (inactive) | > 100 µM (inactive) | > 100 µM (inactive) | > 100 µM (inactive)
8 | NC(=O)C1=CC2C3C=CC2(O)C(=O)OC3O1 (stereo not given) | 34.7 µM (inactive) | 3.44 µM (inactive) | 3.71 µM (inactive) | 12.2 µM (inactive) | 3.39 µM | 9.06 µM (inactive) | 2.43 µM (inactive) | 2.92 µM (inactive) | 2.97 µM (inactive) | 1.82 µM (inactive) | 17.9 µM (inactive) | 2.46 µM (inactive) | 2.43 µM (inactive) | 4.33 µM (inactive) | 1.57 µM (inactive) | 11.9 µM (inactive) | 13.1 µM (inactive) | 1.68 µM (inactive) | 3.36 µM (inactive) | 4.07 µM (inactive)
9 | C=C(C)C(=O)O[C@@H]1C[C@@]2(C)O[C@@H]2C[C@H](O)/C(C)=C/[C@H]2OC(=O)C(=C)[C@@H]21 | > 100 µM (inactive) | 47.2 µM (inactive) | 42 µM (inactive) | > 100 µM (inactive) | 30.9 µM | > 100 µM (inactive) | 52.8 µM (inactive) | > 100 µM (inactive) | 43.1 µM (inactive) | 24.5 µM (inactive) | > 100 µM (inactive) | 60.7 µM (inactive) | 47.9 µM (inactive) | 19.9 µM (inactive) | 40.1 µM (inactive) | > 100 µM (inactive) | > 100 µM (inactive) | 28.2 µM (inactive) | 50.7 µM (inactive) | > 100 µM (inactive)
10 | O=c1[nH]c2ccc(CC(=S)N3CCN(c4ccccc4)CC3)cc2o1 | 85.3 µM (inactive) | > 100 µM (inactive) | 97.7 µM (inactive) | > 100 µM (inactive) | 66.2 µM | > 88.5 µM (inactive) | 84.9 µM (inactive) | > 90.8 µM (inactive) | > 100 µM (inactive) | 4.78 µM (inactive) | > 100 µM (inactive) | > 44.5 µM (inactive) | > 100 µM (inactive) | > 100 µM (inactive) | > 66.5 µM (inactive) | > 89.3 µM (inactive) | > 100 µM (inactive) | > 58.3 µM (inactive) | > 100 µM (inactive) | > 100 µM (inactive)
